One series has as its system Ishikawa. In words: MTT cytotoxicity assay. Type of series: cell-based. The note with it: Homo sapiens, Ishikawa, 24 h incubation, mean ± SEM. Here is the method:
(§1) Cell viability was determined using the metabolic microplate spectrophotometric assay with Methylthiazolyl diphenyltetrazolium bromide (MTT), i.e., 3-(4,5-Dimethyl-2-thiazolyl)-2,5-diphenyl-2H-tetrazolium bromide (Sigma-Aldrich; St. Louis, MO, USA). The anticancer activity of the investigated compounds was evaluated in vitro on the basis of their ability to inhibit the proliferation of various cancer cells. The appropriate number of cells for a given cell line (6–8 × 10^3 cells/mL) were seeded into sterile, colorless 96-well microplates. After 24 h of culture, specific wells of the microplate were treated with test compounds (10–200 µmol/L concentration) and incubated in a CO2 incubator for 24 h. The medium was then removed, the cell monolayer was washed twice with sterile PBS solution and fresh culture medium was added to the wells of the microplate.
(§2) After 48 h of cell culture, the MTT test was conducted. In each well of the microplate, 50 µL of tetrazolium salt solution (final concentration 0.05 mg/mL) was added. The microplate was then placed in a CO2 incubator for 3–4 h (depending on the cell line). Following incubation, 100 µL of DMSO (dimethyl sulfoxide, Sigma-Aldrich, St. Louis, MO, USA) was added to the microplate wells to dissolve the purple formazan crystals formed in the environment of living cells. The absorbance of the formazan solution was read at a wavelength of λ = 580 nm and a reference wavelength of λ = 720 nm after gentle mixing (Biotek Power Wave HT, Biotek Instruments, Winooski, VT, USA).
The percentage of live cells was calculated by comparing the absorbance value of the tested samples with that of the control (cells not treated with compounds). Control absorbance was arbitrarily considered to be 100%. […]
Background: Tetrazolium dyes change colour on reduction, which living cells bring about.

Another series deals with MCF-7. Briefly: MTT cytotoxicity assay. Format: cell-based. Conditions: Homo sapiens, MCF7, 24 h incubation, mean ± SEM. Here is the method: as §1, §2
(§3) The percentage of live cells was calculated by comparing the absorbance value of the tested samples with that of the control (cells not treated with compounds). Control absorbance was arbitrarily considered to be 100%.
(§4) In order to determine the contribution of ROS to the cytotoxicity of the tested compounds, the cells were pre-incubated for 1 h with the antioxidant vitamin E (Trolox, Sigma-Aldrich; St. Louis, MO, USA). Cells were seeded into sterile, colorless 96-well microplates at a concentration of 6–8 × 10^3 cells/mL, depending on the cell line. After 24 h of culture, Trolox was added at a final concentration of 50 μM/well. After 1 h of incubation, the antioxidant was washed off, then appropriate concentrations of test compounds (10–200 µmol/L concentration) were added to fresh cell culture medium and incubated for 24 h. The MTT test was then performed under identical experimental conditions, as described in Section 3.1.2.

In the next series the test system is HCC38. In words: MTT cytotoxicity assay. The note with it: Homo sapiens, 24 h incubation, mean ± SEM. Format: cell-based. Here is the method:
as §1, §2, §3, §4

Another series deals with Hec-1-A. Briefly: MTT cytotoxicity assay. Format: cell-based. The note with it: Homo sapiens, 24 h incubation, mean ± SEM. Here is the method: as §1, §2, §3, §4
The test system of another series is MDA-MB-231. Briefly: MTT cytotoxicity assay. Format: cell-based. Conditions: Homo sapiens, 24 h incubation, mean ± SEM. Here is the method:
as §1, §2, §3, §4

The next series deals with cancer cells. Briefly: Reactive oxygen species generation (results not published). Type of series: cell-based.
Series [1] has as its system breast cancer cells (MCF-7, MDA-MB-231 and HCC38) and endometrial cancer cells (Ishikawa, Hec-1-A). In words: MTT cytotoxicity assay, summary over the cell lines. Type of series: cell-based, human. Conditions: for cytotoxic activity (in words): range of 10–200 µM, all cancer lines. Here is the method:
as §1, §2
The percentage of live cells was calculated by comparing the absorbance value of the tested samples with that of the control (cells not treated with compounds). Control absorbance was arbitrarily considered to be 100%. […] Moreover, cisplatin (Sigma-Aldrich, St. Louis, MO, USA) was used as a reference compound, and identical incubation conditions were used as described above.

Series [2] in a line: Isothermal titration calorimetry (ITC) of inclusion complex formation. Format: physicochemical. Conditions: DMSO, 25 °C. Here is the method: Measurements were carried out using a MicroCal VP-ITC100 microcalorimeter equipped with a 1400 μL measurement cell. All titrations were carried out under isothermal conditions at 25 degrees C in DMSO solution, which was used as a solvent. The mixing speed during the measurements was 351 rpm. The 0.2 mM solution of the ligand (3, 3a and 5) located in the measurement cell was titrated with the cyclodextrin solution located in the syringe. Each measurement consisted of 50 injections of cyclodextrin with a volume of 5 uL and a concentration of 5 mM. The interval between individual injections was 300 s. The effect of direct interaction of the ligand with CD was calculated by subtracting the thermal effects of diluting 5 mM cyclodextrin in a pure solvent. The dilution effect of the 0.2 mM ligand solution was negligible. The results obtained were processed in the MicroCall Origin 7 software. Using a single active site model (ITC Tutorial Guide), the stability constant K of the resulting complex, its stoichiometry n and thermodynamic parameters that describe the ongoing process were determined, viz., enthalpy (ΔH), Gibbs free energy (ΔG) and entropy (ΔS).
(In general: Isothermal titration calorimetry measures the heat released or taken up as one component is titrated into another.)

The nature of series [3]: Water solubility by UV–Vis spectrophotometry (phase solubility with cyclodextrins). Type of series: physicochemical. The note with it: 25 °C, thermodynamic from solid, 298.15 K, without cyclodextrin, read-out: Solubility in H2O. Here is the method:
Spectrophotometric measurements were performed using a SPECORD 50 single-beam UV–Vis spectrophotometer (Analyst Jena, Thuringia, Germany). The calibration lines of the compounds tested were determined for the concentration range of 3.0 × 10^−6 M to 1 × 10^−4 M (Figure 21). The molar extinction coefficients for 3, 3a, and 5 were determined experimentally in an aqueous ethanol solution; the relevant maximum wavelengths are presented in Table 9. The influence of α-cyclodextrins, β-cyclodextrins and HP-β-cyclodextrins on the solubility of the tested ligands in water was evaluated in three measurement series. Briefly, excess ligand was introduced into closed Eppendorff tubes containing α-CD, β-CD or HP-β-CD solutions, at concentrations ranging from 1 to 90 mM for α-CD and HP-β-CD and from 1 to 15 mM for β-CD. The test tubes were stored for 10 days at a temperature of 298.15 K until equilibrium was achieved. After this time, the solutions were centrifuged using a Microcentrifuge MPW-55 at 13,000 rpm for five minutes. For testing, a clear solution was taken from above the sediment and diluted appropriately so that the spectrum was within the operating range of the spectrophotometer.

For another series, the system named is RBCs. In words: Erythrocyte morphology, phase contrast microscopy. Type of series: cell-based, human. The note with it: all tested concentrations; 24 h, 37 °C. Here is the method:
The experiments on human blood were performed in accordance with Polish national guidelines, and the study protocols were approved by the Bioethics Committee of the Medical University of Lodz, Poland: approval no (RNN/104/20/KE). The blood samples were obtained from healthy donors at the Blood Donation Centre in Lodz. The procedure for […] for erythrotoxicity studies is given in a previous paper. The influence of the synthesized compounds, together with a reference compound on RBC membrane integrity, was performed by lysis assay, described elsewhere. Briefly, 2% RBC suspension in 0.9% NaCl was incubated at 37 °C for 24 h with the tested compounds at concentrations of 100 µmol/L, 50 µmol/L, 25 µmol/L, 10 µmol/L and 1 µmol/L. The samples were centrifuged at 3000 rpm for 10 min, and the absorbance of the supernatant was measured at 550 nm. The results are presented as a percentage of hemolysis where a sample containing 10 μL of 2.0% v/v Triton X-100 was regarded as a positive control contributing to 100% of hemolysis. A sample containing saline solution represented the spontaneous hemolysis of RBCs (control). The experiments were conducted using at least three different biological materials (n = 3). […] Additionally, erythrocyte morphology was evaluated using a phase contrast Opta-Tech inverted microscope at 400× magnification.

Series [4] can be described thus: MTT cytotoxicity assay, model of normal cells. Type of series: cell-based. Conditions: human, HMEC-1 cells (model of normal cells), 24 h incubation, mean ± SEM, read-out: Cytotoxic effect of analogues incorporated in cyclodextrins and cyclodextrin, IC50. Here is the method:
as §1, §2, §3

[5] abbreviates: read-out: Cytotoxic effect, IC50.
[6] abbreviates: read-out: Cytotoxic effect of analogues incorporated in cyclodextrins and cyclodextrin, IC50.

Converted amounts (≈) assume the structure as drawn. Where two headings read alike, the source gives them in different places.

As usually defined, the IC50 is the concentration needed to halve the response being measured. Consider `CCN(CC)c1ccc(/C=C2/C(=O)c3ccccc3OC2c2ccccc2)cc1` (stereo not drawn) [Compound 2], for which the IC50 in the series on Ishikawa (setting [5]) was above 200 µM; with MCF-7 (setting [5]), 122 ± 6.7 µM; in the series on HCC38 (setting [5]), above 200 µM; in the series on Hec-1-A (setting [5]) it was above 200 µM; with MDA-MB-231 (setting [5]), above 200 µM. In addition, in the series with cancer cells, the “changes in the level of reactive oxygen species generation (in words)” value (“changes in the level” below) was “no statistically significant changes”. In addition, the “cytotoxic activity (in words)” value in series [1] is on record as “very weak cytotoxic activity”.
As a reminder, the solubility is how much of the substance goes into solution per volume. Regarding `COc1cccc(C2CN=NC23C(=O)c2ccccc2OC3c2ccccc2)c1` (stereo not drawn) [Compound 3a], the IC50 is 68.5 ± 4.6 µM in the series on Ishikawa (setting [5]); 84.2 ± 2.2 µM with MCF-7 (setting [5]); above 120 µM in the series with HCC38 (setting [5]); 67.2 ± 2.5 µM in the series on Hec-1-A (setting [5]); above 120 µM in the series with MDA-MB-231 (setting [5]). In addition, in the series on cancer cells, the “changes in the level” value was “no statistically significant changes”. The “K (formation constant)” value in [2] (HP-β-cyclodextrin) is 5.66 × 10^3 ± 390; in series [2] (α-cyclodextrin), 1.51 × 10^3 ± 130; in series [2] (β-cyclodextrin), 2.49 × 10^3 ± 200. Further, the entries for the “n (stoichiometry)” value in series [2] (HP-β-cyclodextrin), in series [2] (α-cyclodextrin) and in series [2] (β-cyclodextrin) were 0.98 ± 0.09, 0.85 ± 0.13 and 0.92 ± 0.11, respectively. For the same compound, the ΔG in series [2] (HP-β-cyclodextrin) is −21,420.7 J mol^−1; in [2] (α-cyclodextrin), −18,145.5 J mol^−1; in series [2] (β-cyclodextrin) it was −19,385.4 J mol^−1. Besides, the ΔH in series [2] (HP-β-cyclodextrin) is -0.185 ± 0.0141 kcal/mol; in [2] (α-cyclodextrin), -0.0669 ± 0.021 kcal/mol; in [2] (β-cyclodextrin) it was -0.202 ± 0.017 kcal/mol. Further, the ΔS in [2] (HP-β-cyclodextrin) worked out at 69.3 J mol^−1K^−1; in [2] (α-cyclodextrin), 59.9 J mol^−1K^−1; in [2] (β-cyclodextrin), 62.2 J mol^−1K^−1. Besides, the “cytotoxic activity (in words)” value in series [1] is “very weak cytotoxic activity”. Moreover, the solubility at 10 days in series [3] was found to be 1.55 µM (≈ 0.596 µg/mL).
Take `Cc1ccc(/C=C2/C(=O)c3ccccc3OC2c2ccccc2)cc1` (stereo not drawn) [Compound 4]: the IC50 in the series on Ishikawa (setting [5]) was 48.9 ± 6.1 µM; with MCF-7 (setting [5]), 53.4 ± 4.1 µM; with HCC38 (setting [5]), 93.2 ± 2.8 µM; in the series with Hec-1-A (setting [5]), 44.6 ± 4.5 µM; with MDA-MB-231 (setting [5]) it was above 120 µM. Also, the “changes in the level” value with cancer cells was “no statistically significant changes”. Besides, in series [1], the “cytotoxic activity (in words)” value is listed as “very weak cytotoxic activity”.
Turning to `OC[C@H]1O[C@@H]2O[C@H]3[C@H](O)[C@@H](O)[C@@H](O[C@H]4[C@H](O)[C@@H](O)[C@@H](O[C@H]5[C@H](O)[C@@H](O)[C@@H](O[C@H]6[C@H](O)[C@@H](O)[C@@H](O[C@H]7[C@H](O)[C@@H](O)[C@@H](O[C@H]8[C@H](O)[C@@H](O)[C@@H](O[C@H]1[C@H](O)[C@H]2O)O[C@@H]8CO)O[C@@H]7CO)O[C@@H]6CO)O[C@@H]5CO)O[C@@H]4CO)O[C@@H]3CO` [β-CD, β-cyclodextrin, reference compound], the IC50 in the series with Ishikawa (setting [6]), with MCF-7 (setting [6]), with HCC38 (setting [6]), in the series on Hec-1-A (setting [6]) and in the series on MDA-MB-231 (setting [6]) was above 120 µM each time. The “cytotoxic activity of pure cyclodextrin (in words)” value in series [1] (HMEC-1 endothelial cells or any tested cancer cells, 10–120 µM) is given as “not found to demonstrate any cytotoxic activity”. The “RBC morphology (in words)” value in the series on RBCs is “no pathological changes in RBCs or damaged cells were observed”. Besides, the IC50 at 24 h in series [4] is above 120 µM.

Source of the values: paper PMC11312998, “Molecular Pro-Apoptotic Activities of Flavanone Derivatives in Cyclodextrin Complexes: New Implications for Anticancer Therapy” (International Journal of Molecular Sciences, 2024).
